# Experimental data reported in patent US9896482B2, “Beta hairpin peptides having antiviral properties against Dengue virus” (CENTRO DE INGENIERÍA GENÉTICA Y BIOTECNOLOGÍA, priority 2014, dated 2018).
# Read-outs that look alike come from different tables or passages of the source. Where a SMILES comes first, the peptide text is derived from it. Bridges are numbered along the chain shown (N, C = ends). [ ]: non-standard residue; d: D form.
# Legend:
# [1] = test system: Vero cells; assay: Toxicity in Vero cells (MTT assay and manual cell counting); format: cell-based; settings: ‡ non toxic at 1000 μM
# Protocol: (§1) The toxicity of the beta hairpin peptides was assessed with the MTT (3-(4,5-dimethylthiazol-2-yl)-2,5-diphenyltetrazolium bromide, Invitrogen, USA) assay (Mosmann, T. (1983). J. Immunol. Methods 65, 55-63.), and by manual cell counting using a Neubauer chamber. Ninety-six well plates (Costar, USA) were seeded with 200 μL/well of a suspension containing Vero cells at 1×10^5 cells/mL and incubated until the monolayers reached approximately 90% confluence, typically for 18-24 h. After washing the cells twice with DMEM (Dulbecco's Modified Eagle Medium) medium, 50 μL/well were added of the peptide or additive dilutions to be evaluated (Triton ^X-100™ dissolved in PBS was used as positive toxicity control) and the plates were incubated at 37° C. under a 5% CO2 atmosphere for 2 or 24 h. Two different procedures were then employed to measure toxicity: • a) A 2 mg/mL solution of MTT in PBS was added (50 μL/well) and the plates were incubated for further 4 h at 37° C., 5% CO2. The medium was then removed, and 100 μL/well of DMSO were then added to solubilize formazan precipitates. Finally, the optical density (OD) of the supernatants at a wavelength of 540 nm was measured using a plate reader (Sensident Scan™, Merck, Germany). • b) The plates were washed with 200 μL/well of DMEM medium and then a trypsin solution (Sigma, USA) was added at 50 μL/well. After inactivating the trypsin by adding 150 μL/well of DMEM supplemented with 10% FBS, the cells were counted using the Trypan Blue (Gibco, USA) vital stain. The data were processed using the statistical software package Prism v5.3 (GraphPad, USA), using non-linear regression to fit them to a log10 (concentration) vs response curve.
# [2] = test system: DENV serotype 2 (NIBSC code S16803); assay: Plaque reduction assay in Vero cells, DENV2; format: cell-based, Dengue virus
# Protocol: (§2) The cells were grown in 24 well plates until the monolayer reached approximately 90% confluence, after which they were washed twice with MEM medium without Fetal Bovine Serum (FBS). Then, peptide dilutions were added and the cell-peptide mixtures were incubated typically for 1 hour at 37° C., followed by the addition of a DENV serotype 2 preparation (NIBSC code S16803) at a multiplicity of infection (m.o.i.) of 0.001. The cells were then incubated for 1 hour at 37° C., and once the period of incubation with the viral inoculum concluded, were washed again to remove unbound virions and incubated for 5 days at 37° C. in high density medium (MEM supplemented with non-essential amino acids, 1% FBS, 1% carboxymethylcellulose) in order to let viral plaques form. Afterwards, the cells were stained with 0.1% Naphtol Blue Black in 0.15 M sodium acetate. Two replicates per experimental point were used in each assay, and three independent determinations were performed for each sample.
# Next, it was decided to compare the antiviral activity of peptides PHB4 and HDIII3CL against all four DENV serotypes, with the objective of comparing their respective IC50 values. This comparison was performed with plaque reduction assays on Vero cells, adding the viral inoculum for each serotype (DENV1, NIBSC code West Pac 74, DENV2, NIBSC, code S16803; DENV3, NIBSC, code CH53489; DENV 4, NIBSC code TVP360) at a m.o.i. of 0.001.
# [3] = Toxicity in Vero cells (MTT assay and manual cell counting); format: cell-based; settings: ‡ non toxic at 1000 μM, read-out: Ctox50
# Protocol: as §1
# [4] = test system: DENV3 (NIBSC code CH53489); assay: Plaque reduction assay in Vero cells, DENV3; format: cell-based, Dengue virus; settings: m.o.i. 0.001, read-out: Antiviral activity IC50 vs DENV3
# Protocol: as §2
# (§3) Next, it was decided to compare the antiviral activity of peptides PHB4 and HDIII3CL against all four DENV serotypes, with the objective of comparing their respective IC50 values. […]
# [5] = test system: DENV1 (NIBSC code West Pac 74); assay: Plaque reduction assay in Vero cells, DENV1; format: cell-based, Dengue virus; settings: m.o.i. 0.001, read-out: Antiviral activity IC50 vs DENV1
# Protocol: as §2, §3
# [6] = test system: DENV 4 (NIBSC code TVP360); assay: Plaque reduction assay in Vero cells, DENV4; format: cell-based, Dengue virus; settings: m.o.i. 0.001, read-out: Antiviral activity IC50 vs DENV4
# Protocol: as §2, §3
# [7] = target: T1, sLRP1-CIV (Homo sapiens, UniProt Q07954); assay: Biacore (SPR) binding to immobilized sLRP1-CIV; settings: double site model, maximum RU vs. concentration
# T1 construct: purchased R&D Systems, USA
# Protocol: The interaction of the beta hairpin peptides with soluble fragments of the LRP1 receptor was studied by Surface Plasmon Resonance (SPR), using a Biacore X unit. In this technique, one of the interaction partners to be studied is immobilized on the surface of a chip, and the other interaction partner is dissolved in a solution that runs through the measurement cell on top of the interaction surface, under conditions of controlled flow. The association and dissociation of interacting partners is measured in resonance units (RU) and plotted, as a function of time, on charts known as ‘sensorgrams’. SPR, therefore, enables the experimenter to obtain detailed information about the interaction without having to label either interaction partner.
# In this example, one channel of a CM5 chip (GE Healthcare, USA) was used to immobilize protein sLRP1-CIV on its surface at high density (see Table 6) and recombinant Human Serum Albumin (rHSA, Sigma-Aldrich, USA) was immobilized on the other channel.
# Although it was decided to immobilize sLRP1-CIV at high density because these conditions make easier the detection of any potential interactions with compounds whose molecular weight is lower than that of average proteins (such as the peptides this experiment is intended to study), it must be stressed that in high-density surfaces, mass transfer limitations and the possibility of multivalent binding make difficult the accurate determination of kinetic constants. Therefore, and in order to characterize in greater detail the sLRP1-CIV binding surface, different RAP dilutions (0.6-20 μM) were loaded, and RU were registered under conditions of interaction equilibria (250 sec, see FIG. 13B). […] The data also indicate that immobilized sLRP1-CIV faithfully reproduces the previously reported characteristics of the LRP1-RAP interaction.
# The binding of beta hairpin peptides to sLRP1-CIV was studied by loading 20 μM dilutions in running buffer of the different peptide variants onto the sLRP1-CIV chip characterized above. The high strength of the resulting signals is consistent with the binding of aggregated, rather than monomeric forms of the peptides. Therefore, the observed variations between different peptides may reflect either differences in the affinity of unitary peptide interactions or differences in aggregation numbers and/or geometries that lead to variations in the number of peptide units able to simultaneously engage immobilized sLRP1-CIV molecules in a multivalent manner. […] The difference between peptides HDIII3CL2 and HDIII3CL is that the former has an additional C-terminal lysine and has, therefore, a stronger cationic character, which may facilitate additional electrostatic interactions with the negatively charged LRP1 receptor.
# [8] = target: T1, sLRP1-CIV; settings: other studies; read-out: Affinity of multi-point interaction with clusters II and IV of LRP1; cited from earlier work
# [9] = DENV2, plaque reduction, NA = no detectable activity at concentrations lower than or equal to 100 μM, read-out: IC50, antiviral activity in Vero cells (50% inhibitory activity)
Compound,Ctox50 [1],"IC50 [2, 9]",CC50 [3],IC50 [4],IC50 [5],IC50 [6],"IC50 ([2]; Vero cells, m.o.i. 0.001, read-out: Antiviral activity IC50 vs DENV2)",Kd ([7]; read-out: Kd of high-affinity interaction),Kd ([7]; read-out: Kd of low-affinity interaction),Kd [8]
CC(C)[C@@H]1NC(=O)[C@H](CCCCN)NC(=O)[C@H](CCCCN)NC(=O)[C@H](CC(=O)O)NC(=O)[C@H]2CCCN2C(=O)[C@H](CCC(=O)O)NC(=O)[C@H]([C@@H](C)O)NC(=O)[C@H](Cc2c[nH]c3ccccc23)NC(=O)[C@H](CC(N)=O)NC(=O)[C@H](C(C)C)NC(=O)[C@@H](N)CSSC[C@@H](C(=O)N[C@@H](CCCCN)C(=O)N[C@@H](CCCCN)C(=O)N[C@@H](CCCCN)C(N)=O)NC(=O)[C@H](Cc2c[nH]c3ccccc23)NC(=O)[C@H](CC(N)=O)NC1=O [PHB1] (H-CVNWTE[dP]DKKVNWCKKK-NH2; disulfide 1-14),>>1000^‡ μM,75 µM,,,,,,,,
"CC[C@H](C)[C@@H]1NC(=O)CNC(=O)[C@H]([C@@H](C)CC)NC(=O)[C@H](C(C)C)NC(=O)[C@H]([C@@H](C)CC)NC(=O)[C@H](CC(N)=O)NC(=O)[C@H](CO)NC(=O)[C@@H](N)CSSC[C@@H](C(=O)N[C@@H](CCCCN)C(=O)N[C@@H](CCCCN)C(N)=O)NC(=O)[C@H](Cc2c[nH]c3ccccc23)NC(=O)[C@H](CC(N)=O)NC(=O)[C@H]([C@@H](C)CC)NC(=O)[C@H](CCCCN)NC(=O)[C@H](CC(C)C)NC(=O)[C@H](C)NC(=O)[C@H](CCCCN)NC(=O)[C@H](CC(=O)O)NC(=O)CNC1=O [HDIII3CL, reference compound] (H-CSNIVIGIGDKALKINWCKK-NH2; disulfide 1-18)",,20 µM,1 mM,20 µM,15 µM,50 µM,20 µM,,,
"RAP: Receptor-Associated Protein, a known LRP1 ligand",,,,,,,,4.2 nM,1100 nM,6 to 18 nM
